# Experimental data published in patent US11400160B2, “Multifunctional conjugates” (E.P.O.S IASIS Research and Development Limited, priority 2017, dated 2022).
# Read-outs that look alike come from different tables or passages of the source.
# Experiments:
# [1] = system: MDA-MB231 cells; assay: Cell viability, crystal violet colorimetric assay; type: cell-based; details: 72 hrs; for IC50: tested at 0.02-0.1 mM; for EC50: * denotes EC50 value, read-out: EC50 value (starred) MB231
# Description: (§1) Immortalised osteolytic metastatic breast cancer cell lines, a) hormone-dependent MCF-7 and b) hormone refractory MDA-MB231, together with the daughter line MDA-MB231TXSA were incubated with 5 gradual concentrations of compounds of the invention as described below. Cell viability was assessed with the crystal violet colorimetric assay and IC50s were evaluated.
# (§2) Medium was removed from cell cultures and cells were fixed with 4% v/v formaldehyde for 5 mins at room temperature. Formalin was then removed and CV added for 10 mins at room temperature followed by several washes with dsH2O. Samples were allowed to dry overnight. The following day, 10% acetic acid was added for 15 mins and optical density at 620 nm was measured. Optical densities versus compound concentrations were plotted in graphs and IC50s estimated by linear regression analysis using the WorkOut (VictorX4) software.
# (§3) MCF-7, MDA-MB231 and MDA-MB231TXSA cells were seeded in 96-well-plates and allowed to attach overnight. The following day media were replaced with fresh media containing the following compounds: Both free tetraethyl methylbisphosphonate (bpp(OEt)) and bpp(OEt) in 1:1 combination with the free chromanol and the biphosphonate conjugates were tested at 5 gradual concentrations of: 0.02, 0.04, 0.06, 0.08 and 0.1 mM.
# (§4) Cells were cultured in the presence of the compounds for 72 hrs and viability was assessed on day 3 by crystal violet assay. The cell lines were selected for their high bone metastatic potential. The fluorescently transfected line MB231TXSA, derived from line MB231 is also used in animal studies (WP7).
# [2] = system: MDA-MB231TXSA cells; assay: Cell viability, crystal violet colorimetric assay; type: cell-based; details: 72 hrs; for IC50: tested at 0.02-0.1 mM, read-out: IC50 values MB231-TXSA
# Description: as §1, §2, §3, §4
# [3] = system: MCF-7 cells; assay: Cell viability, crystal violet colorimetric assay; type: cell-based; details: 72 hrs; for IC50: tested at 0.02-0.1 mM, unstarred values; for EC50: * denotes EC50 value, read-out: EC50 value (starred) MCF-7
# Description: as §1, §2
# MCF-7, MDA-MB231 and MDA-MB231TXSA cells were seeded in 96-well-plates and allowed to attach overnight. […]
# as §4
# [4] = system: metastatic breast cancer cell lines (MCF-7, MDA-MB231, MDA-MB231TXSA); assay: Cell viability / antiproliferative activity, breast cancer lines; type: cell-based; details: for antiproliferative activity compared with bpp(OEt): esterified compounds and 1:1 mixtures; for effect on cell viability: viability assays and IC50s, 72 hrs
# Description: as §1, §2, §3, §4
# [5] = system: metastatic breast cancer lines; assay: DAPI staining of apoptotic nuclei; type: cell-based; details: cells treated with IC50 concentrations
# Description: Compounds with statistically significant decrease in viability were further examined to determine whether their effect was due to induced apoptosis based on morphologic criteria in DAPI-stained cells. […] Pro-apoptotic efficacies were compared using two-way analysis of Variance (ANOVA) followed by Bonferroni post-tests.
# Growth medium was removed and cells were fixed with 4% v/v formaldehyde in PBS for 5 mins at room temperature. Fixed cells were washed once with PBS and incubated with 1 μg/ml DAPI in PBS for 20 mins at 37° C. Rinsed with PBS and mounted in mounting medium. Coverslips were sealed on glass slides and examined for the presence of apoptotic cells by fluorescence microscopy (see FIG. 2).
# [6] = system: Caspase-3 activity in MB231 breast cancer cell-line; assay: Caspase-3 enzymatic activity assay; type: cell-based; details: IC50 concentrations, two-way ANOVA with Bonferroni post-tests
# Description: Cells were grown in 12 well-plates in the presence of IC50 concentrations of compounds of the invention or culture medium with 0.1% v/v ethanol as control and were washed with PBS and incubated with lysis buffer for 15 mins at 4° C. Lysates were centrifuged at 15000 g. 20 μl of each lysate suspension was incubated with 100 μl of protease buffer containing 10 μM of fluorescent substrate zDEVD-AFC (3 samples/lysate) for 4 hrs at room temperature. Caspase-3 enzymatic activity was measured every 1 hr by fluorescence with excitation at 405 nm and emission at 515/30 nm.
# Fluorescence measurements were plotted in graphs against time and were statistically analysed by two-way ANOVA followed by Bonferroni post-tests to identify statistically significant apoptotic activities of compounds of the invention (see FIG. 3).
# [7] = system: breast and prostate cancer metastatic cell lines; assay: Dose response of cell viability of breast and prostate cancer cells (FIG. 1); type: cell-based
# [8] = system: RAW264.7 cells; assay: In vitro osteoclastogenesis of RAW264.7 (TRAP staining); type: cell-based, murine; details: RANKL-differentiated; γ-tocopherol at 1 μg/ml and 201 μg/ml; bpp(OEt) at increasing concentrations; FIG. 4
# Description: (§5) Human peripheral blood mononuclear cells (PBMCs) and the RAW264.7 murine monocytic cell line were differentiated into osteoclast-like cells in the presence of RANKL plus M-CSF and have been used as model systems of osteoclastogenesis. Osteoclast-like cells, from Giant Cell Tumours (GCT) of bone specimens from three independent donors were used to investigate the effect of compounds of the invention on the bone resorbing activity of mature osteoclasts.
# (§6) Cells were cultured in 96-well plates at a density of 1×10^4 cells/well in DMEM medium with 10% FCS, L-glutamine (2 mM) and Hepes (20 mM). Cells were allowed to attach for 4 hrs before treatment with RANKL (50 ng/ml) in the presence or absence of increasing concentrations of compounds of the invention as above. Medium and treatments were replaced on day three and TRAP activity determined on day 5. The overall number of viable cells were determined by crystal violet staining.
# Osteoclast cultures established by the differentiation of RAW264.7 cells in wells were fixed and stained for tartrate resistant acid phosphatase (TRAP) as recommended by the manufacturer on days 4 and 5. TRAP positive cells were visualised by light microscopy and images taken with a digital camera.
# [9] = system: osteoclasts from RAW264.7 and Human PBMC; assay: Resorption on pre-loaded whale dentine / osteologic slides (pit formation); type: cell-based, murine
# Text: Zoledronic acid was used as control.
# as §5
# Human PBMCs were isolated from normal healthy donors isolated from the buffy coats acquired from the local Red Cross Blood Service. The cells were diluted in Hanks Balanced Salt Solution (HBSS) and separated by gradient centrifugation with Lymphoprep™. Isolated cells were resuspended in α MOD, 10% FCS, L-glutamine (2 mM), Hepes (20 mM), supplemented with M-CSF (25 ng/ml), 1α,25(OH)2 vitamin D3 (10 nM) and dexamethasone (10 nM) and plated into 96-well plates containing whale dentine slices, for the bone resorption assay or directly into wells for TRAP staining. The following day, media were removed and replaced with media as above, supplemented with RANKL (100 ng/ml) in the presence or absence of increasing concentrations of compounds of the invention. Medium and treatments were replaced every three days.
# as §6
# Whale dentine slices will be washed in extran, rinsed with distilled water, washed in 70% ethanol and dried overnight. The dentine slices mounted on stubs, carbon-coated and visualised on a Philips XL-20 scanning electron microscope, (SEM) as previously described. Images will be analysed using ImageQuant software and the area of resorption determined for each dentine slice (quadruplicate dentine slices for each treatment). Results are expected to be average resorption area +/− standard errors of the mean (SEM) and the significant differences between treatments will be determined using Students t-tests (2-tailed, unpaired).
# (§7) In a separate experiment, pre-loaded bone slices (whale dentine) or commercial forms of hydroxyapatite (osteologic slides) with either free γ-tocopherol (γToc) or γ-tocopherol-bpp(OEt) (BP-γToc) and then washed away unbound drug.
# [10] = Binding to pre-loaded bone slices / hydroxyapatite after washing; details: pre-loaded whale dentine or osteologic slides, unbound drug washed away
# Text: as §7
Compound,"IC50 ([1]; Exp.3, unstarred values) [µM]",EC50 ([1]; Exp.4) [µM],IC50 ([2]; Exp.3) [µM],IC50 ([2]; Exp.4) [µM],IC50 ([3]; Exp.4) [µM],"IC50 ([1]; Exp.1, unstarred values) [µM]",IC50 ([1]; Exp.2) [µM],IC50 ([2]; Exp.1) [µM],antiproliferative activity compared with bpp(OEt) [4],effect on cell viability [4],cell viability on breast and prostate cancer metastatic cell lines [7],"IC50 ([1]; Exp.4, unstarred values) [µM]",EC50 ([3]; Exp.3) [µM],other results
"Cc1c(C)c2c(c(C)c1O)CC[C@@](C)(CCC[C@H](C)CCC[C@H](C)CCCC(C)C)O2 [α-toc, α-tocopherol, reference compound]",103,131,137,88.7,54.5,–,–,–,–,–,–,–,–,IC50 ([3]; Exp.3): 54.7 µM
γ-tocopheryl Diphosphonic Acid [γ-toc-bpp(OH)],–,–,–,–,–,172,66.2,92,increased,reduced cell viability,–,–,–,"EC50 ([2]; Exp.2, * denotes EC50 value, read-out: EC50 value (starred) MB231-TXSA): 182 µM; EC50 ([3]; Exp.1): 303 µM; IC50 ([3]; Exp.2): 65.1 µM; antiproliferative activity compared with γ-tocopherol ([4]; upon esterification of γ-tocopherol): increased; apoptotic nuclei (condensed chromatin, fractured nuclei) by DAPI staining [5]: increased numbers of apoptotic nuclei; pro-apoptotic activity (Caspase-3 activity) [6]: did not show significant pro-apoptotic activity"
CC(C)=CCC/C(C)=C/CC/C(C)=C/CC[C@]1(C)CCc2cc(O)c(C)c(C)c2O1 [γ-Tocotrienol],–,–,–,–,–,–,–,–,–,–,inhibited in a dose-dependent manner,–,–,–
α-tocopheryl Bisphosphonic Acid [α-toc-bpp(OH)],61.6,–,88.8,75.9,64.1,–,–,–,increased,reduced cell viability,–,238,351,–
"CCOP(=O)(OCC)C(CCC(=O)Oc1c(C)c(C)c2c(c1C)CCC(C)(CCCC(C)CCCC(C)CCCC(C)C)O2)P(=O)(OCC)OCC (stereo not drawn) [α-toc-bpp(OEt), α-Tocopheryl Bisphosphonic Ester]",128,–,98.1,73,76.8,–,–,–,increased,reduced cell viability,–,281,152,–
"CCOP(=O)(OCC)C(CCC(=O)O)P(=O)(OCC)OCC [bpp(OEt), Tetra Ethyl 4,4-bis(phosphono)-butanoic Acid, reference compound]",–,710,136,179,–,106,242,441,–,–,without effect,–,365,"EC50 ([1]; Exp.3): 74.2 µM; IC50 ([2]; Exp.2, unstarred values): 129 µM; IC50 ([3]; Exp.1): 107 µM; EC50 ([3]; Exp.2): 143 µM; EC50 ([3]; Exp.4): 1980 µM; antiproliferative/proapoptotic effect in metastatic breast cancer cell-lines [4]: did not have antiproliferative/proapoptotic effect; osteoclastogenesis of Raw264.7 [8]: inhibited osteoclastogenesis in a dose-dependent manner; anti-resorptive activity of the free bisphosphonate [9]: minimal anti-resorptive activity; binding to bone substrate / bone mineral [10]: high affinity for bone"
